Here are results for 33 compounds from US6528528B2 (Warner-Lambert Company, priority 1997, dated 2003).

The first assay has as its target T1, rabbit reticulocyte 15-LO (Oryctolagus cuniculus, UniProt P12530).
T1 construct: Fifteen-lipoxygenase was obtained from phenylhydrazine-treated rabbits and purified per the method of Rapoport; from tissue; host or cells: reticulocytes of phenylhydrazine-treated rabbits
T1 sequence (P12530 1-663): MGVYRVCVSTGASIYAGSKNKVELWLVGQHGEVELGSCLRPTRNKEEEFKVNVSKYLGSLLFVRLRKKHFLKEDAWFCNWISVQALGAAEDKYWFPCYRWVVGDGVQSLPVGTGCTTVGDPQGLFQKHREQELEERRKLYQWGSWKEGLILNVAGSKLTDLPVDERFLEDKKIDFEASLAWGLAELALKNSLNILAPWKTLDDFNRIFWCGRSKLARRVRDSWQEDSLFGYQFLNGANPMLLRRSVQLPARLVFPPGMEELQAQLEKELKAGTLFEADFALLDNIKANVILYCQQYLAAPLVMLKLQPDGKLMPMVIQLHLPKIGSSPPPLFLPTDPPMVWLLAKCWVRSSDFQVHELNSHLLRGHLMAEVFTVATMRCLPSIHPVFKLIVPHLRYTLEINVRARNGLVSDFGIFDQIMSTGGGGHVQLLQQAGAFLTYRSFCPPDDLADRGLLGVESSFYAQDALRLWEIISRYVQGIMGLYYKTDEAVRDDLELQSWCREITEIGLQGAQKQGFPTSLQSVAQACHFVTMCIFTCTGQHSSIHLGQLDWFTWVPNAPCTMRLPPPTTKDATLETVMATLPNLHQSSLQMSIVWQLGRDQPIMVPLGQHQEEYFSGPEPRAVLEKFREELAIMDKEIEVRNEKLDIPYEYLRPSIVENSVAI
The assay is described as follows: Rabbit Reticulocyte 15-LO Assay (h15LO). The conditions noted are these: 0.25 h; Table 2; @ 10 μM; read-out: h15LO % @ 10 μM. It is filed as biochemical. The procedure:
Rabbit Reticulocyte 15-LO Assay (h15LO)
The present 15-LO assay takes advantage of the ability of 15-LO to oxidize the fatty acid linoleic acid to the hydroperoxy fatty acid 13-(S)HPODE, resulting in the formation of a conjugated diene. The 15-LO inhibitors are incubated with 15-LO enzyme in the presence of linoleic acid substrate. The initial reaction is compared to an uninhibited (maximal) reaction to yield % inhibition. […] This prevents artificial nonenzyme lipid peroxidation and product breakdown in the sample. 13-HPODE is quantitated by comparing peak areas of individual samples with those from a standard curve generated using authentic 13-HODE. This assay is performed using 2U of rabbit reticulocyte 15-LO in the presence of 174 μM linoleic acid. The reaction is incubated for 15 minutes at 4° C. The total reaction volume is 100 μL in PBS containing 0.2% Na cholate.
Fifteen-lipoxygenase was obtained from phenylhydrazine-treated rabbits and purified per the method of Rapoport (Rapoport S. M., Schewe T., Wiesner R., et al. The lipoxygenase of reticulocytes. Purification, characterization, and biological dynamics of the lipoxygenase; its identity with the respiratory inhibitors of the reticulocyte. European Journal of Biochemistry, 1979;96:545-561). The following chemicals were purchased and used as received: linoleic acid (NUJCheck Prep), 13-HPODE (Biomol Research Labs), sodium cholate (Sigma), trimethyl phosphite (Fluka Chemicals).
On to `O=C(Nc1ccccc1)c1cc(NC(=S)Nc2cc(Cl)cc(Cl)c2)ccc1F` [Example 101, 5-[3-(3,5-Dichlorophenyl)-thioureido]-2-fluoro-N-phenyl-benzamide], for which the inhibition at 10 µM is 66%.

The assay is the same for the next values; noted with them: Table 1; 2U rabbit reticulocyte 15-LO, 174 μM linoleic acid, 15 minutes at 4° C.
With `COc1ccc(NC(=O)c2ccccc2)cc1N` [Example 21, N-(3-Amino-4-methoxyphenyl)-benzamide], the IC50 (commonly the midpoint of a concentration-inhibition curve) was found to be 2130 nM.

Still in this assay, the particulars now being: Table 2; 2U rabbit reticulocyte 15-LO, 174 μM linoleic acid, 15 minutes at 4° C.
Regarding `O=C(Nc1ccccc1)c1cccc(Nc2cc(Cl)cc(Cl)c2)c1` [Example 26, 3-(3,5-Dichloro-phenylamino)-N-phenyl-benzamide], the IC50 came out at 1600 nM.

As for `COc1ccc(C(=O)Nc2ccccc2)cc1Nc1cccc(C(F)(F)F)c1` [Example 30, 3-(3-Trifluoromethyl-phenylamino)-4-methoxy-N-phenyl-benzamide], the IC50 was 10 nM.

For the compound `Cc1ccc(C(=O)Nc2ccccc2)cc1Nc1ccccc1` [Example 38, 3-Phenylamino-4-methyl-N-phenyl-benzamide], the IC50 is above 3000 nM.

`COc1ccc(C(=O)Nc2ccc(Cl)c(Cl)c2)cc1Nc1cccc(C(F)(F)F)c1` [Example 47, 4-Methoxy-3-(3-trifluoromethyl-phenylamino)-N-(3,4-dichlorophenyl)-benzamide] gave an IC50 of 100 nM.

`COc1ccc(C(=O)Nc2ccccc2)cc1NC(=S)Nc1ccc(Cl)c(C(F)(F)F)c1` [Example 73, 3-[3-(4-Chloro-3-trifluoromethylphenyl)-thioureido]-4-methoxy-N-phenyl-benzamide] came in with an IC50 of 16 nM.

The compound `COc1ccc(C(=O)Nc2ccc(F)c(F)c2)cc1NS(=O)(=O)c1cc(Cl)cc(Cl)c1` [Example 116, 3-(3,5-Dichloro-benzenesulfonylamino)-4-methoxy-N-(3,4-difluorophenyl)-benzamide] showed an IC50 of 20 nM.

In the case of `COc1ccc(C(=O)Nc2ccccc2)cc1NS(=O)(=O)c1ccc2ccccc2c1` [Example 140, 3-(Naphthalene-2-sulfonylamino)-4-methoxy-N-phenyl-benzamide], the IC50 turned out to be 39 nM.

Compound `O=C(Nc1ccccc1)c1ccc(O)c(Nc2ccccc2)c1` [Example 145, 4-Hydroxy-3-phenylamino-N-phenyl-benzamide] showed a concentration for half-maximal inhibition (IC50) of 180 nM.

Compound `CCOC(=O)c1cccc(NC(=O)c2ccc(OC)c(N)c2)c1` [Example 148, 3-(3-Amino-4-methoxy-benzoylamino)-benzoic Acid Ethyl Ester] gave an IC50 of 613 nM.

`COc1ccc(NC(=O)c2ccc(F)c(F)c2)cc1N` [Example 150, 3,4-Difluoro-N-(3-amino-4-methoxy-phenyl)-benzamide] yielded an IC50 of 205 nM.

`COc1ccc(C(=O)Nc2ccccc2)cc1Nc1ccc(F)cc1` [Example 153, 3-(4-Fluoro-phenylamino)-4-methoxy-N-phenyl-benzamide] yielded an IC50 of 54 nM.

`COc1ccc(NC(=O)c2ccc(Cl)c(Cl)c2)cc1Nc1cccc(C(F)(F)F)c1` [Example 160, 3,4-Dichloro-N-[4-methoxy-3-(3-trifluoromethyl-phenylamino)-phenyl]-benzamide] came in with an IC50 of 119 nM.

On to `COC(=O)c1cccc(NC(=S)Nc2cc(C(=O)Nc3ccccc3)ccc2OC)c1` [Example 161, 3-[3-(2-Methoxy-5-phenylcarbamoyl-phenyl)-thioureido]-benzoic Acid Methyl Ester], for which the IC50 came out at 22 nM.

In turn, `COc1ccc(C(=O)Nc2ccc(F)c(F)c2)cc1NC(=S)Nc1cccc(C(=O)O)c1` [Example 162, 3-{3-[5-(3,4-Difluoro-phenylcarbamoyl)-2-methoxy-phenyl]-thioureido}-benzoic Acid] registered an IC50 of 55 nM.

Compound `COc1ccc(NC(=O)c2ccc(F)c(F)c2)cc1NC(=S)Nc1ccc(C(=O)O)cc1` [Example 168, 4-{3-[5-(3,4-Difluoro-benzoylamino)-2-methoxy-phenyl]-thioureido}-benzoic Acid acid] returned an IC50 of 109 nM.

For `COc1ccc(NC(=O)c2ccc(F)c(F)c2)cc1NC(=S)Nc1cccc(C(=O)O)c1` [Example 169, 3-{3-[5-(3,4-Difluoro-benzoylamino)-2-methoxy-phenyl]-thioureido}-benzoic Acid], it took 246 nM to reach half-maximal inhibition (IC50).

The compound `COc1ccc(NC(=O)Nc2ccc(Cl)c(Cl)c2)cc1NC(=S)Nc1cc(Cl)cc(Cl)c1` [Example 171, 1-(3,4-Dichloro-phenyl)-3-{3-[3-(3,5-dichloro-phenyl)-thioureido]-4-methoxy-phenyl}-urea] yielded an IC50 of 275 nM.

The same assay, now with this note: Table 2; concentration not given.
Take `Nc1cc(C(=O)Nc2ccccc2)ccc1OC(F)(F)F` [Example 147, 3-Amino-4-trifluoromethoxy-N-phenyl-benzamide]: the “h15LO, value given as bare %” value is reported as 37.05%.

`Nc1cc(NC(=O)c2ccc(F)c(F)c2)ccc1F` [Example 151, 3,4-Difluoro-N-(3-amino-4-fluoro-phenyl)-benzamide]: the “h15LO, value given as bare %” value was found to be 82.66%.

In the case of `COc1ccc(NC(=O)Nc2ccc(Cl)c(Cl)c2)cc1N` [Example 152, 1-(3-Amino-4-methoxy-phenyl)-3-(3,4-dichloro-phenyl)-urea], the “h15LO, value given as bare %” value amounted to 57.49%.

For the compound `COc1ccc(C(=O)Nc2ccc(F)cc2)cc1Nc1cc(Cl)cc(Cl)c1` [Example 154], the “h15LO, value given as bare %” value turned out to be 97.66%.

In the case of `COc1ccc(C(=O)Nc2ccc(F)cc2)cc1Nc1ccc(F)cc1` [Example 155, 3-(4-Fluoro-phenylamino)-4-methoxy-N-(4-fluoro-phenyl)-benzamide], the “h15LO, value given as bare %” value came to 94.44%.

For the compound `COC(=O)c1cccc(NC(=O)c2ccc(OC)c(Nc3cccc(C(F)(F)F)c3)c2)c1` [Example 156, 3-[4-Methoxy-3-(3-trifluoromethyl-phenylamino)-benzoylamino]-benzoic Acid Methyl Ester], the “h15LO, value given as bare %” value is given as 90.33%.

As to `CCOC(=O)c1cccc(NC(=O)c2ccc(OC)c(Nc3cccc(C(F)(F)F)c3)c2)c1` [Example 157, 3-[4-Methoxy-3-(3-trifluoromethyl-phenylamino)-benzoylamino]-benzoic Acid Ethyl Ester], the “h15LO, value given as bare %” value is on record as 78.83%.

In the case of `O=C(Nc1ccccc1)c1ccc(OC(F)(F)F)c(Nc2cccc(C(F)(F)F)c2)c1` [Example 158, 4-Trifluoromethoxy-3-(3-trifluoromethyl-phenylamino)-N-phenyl-benzamide], the “h15LO, value given as bare %” value is recorded as 48.28%.

Take `O=C(Nc1ccc(F)cc1)c1ccc(OC(F)(F)F)c(Nc2cccc(C(F)(F)F)c2)c1` [Example 159, 4-Trifluoromethoxy-3-(3-trifluoromethyl-phenylamino)-N-(4-fluoro-phenyl)-benzamide]: the “h15LO, value given as bare %” value is given as 44.58%.

In the case of `COc1ccc(C(=O)Nc2ccc(F)c(F)c2)cc1NC(=S)Nc1ccc(S(=O)(=O)[O-])cc1.[Na+]` [Example 165, 4-{3-[5-(3,4-Difluoro-phenylcarbamoyl)-2-methoxy-phenyl]-thioureido}-benzenesulfonic Acid, Sodium Salt], the “h15LO, value given as bare %” value is 98.51%.

Take `COc1ccc(C(=O)Nc2ccc(F)cc2)cc1NC(=S)Nc1ccc(C(=O)O)cc1` [Example 166, 4-{3-[5-(4-Fluoro-phenylcarbamoyl)-2-methoxy-phenyl]-thioureido}-benzoic Acid]: the “h15LO, value given as bare %” value worked out at 98.11%.

As for `COc1ccc(C(=O)Nc2ccc(F)cc2)cc1NC(=S)Nc1cccc(C(=O)O)c1` [Example 167, 3-{3-[5-(4-Fluoro-phenylcarbamoyl)-2-methoxy-phenyl]-thioureido}-benzoic Acid], the “h15LO, value given as bare %” value was 96.22%.

`O=C(Nc1ccc(F)c(NC(=S)Nc2cc(Cl)cc(Cl)c2)c1)c1ccc(F)c(F)c1` [Example 170, N-{3-[3-(3,5-Dichloro-phenyl)-thioureido]-4-fluoro-phenyl}-3,4-difluoro-benzamide]: the “h15LO, value given as bare %” value was 99.53%.

For `COC(=O)c1cccc(NC(=S)Nc2cc(NC(=O)Nc3ccc(Cl)c(Cl)c3)ccc2OC)c1` [Example 172, 3-(3-{5-[3-(3,4-Dichloro-phenyl)-ureido]-2-methoxy-phenyl}-thioureido)-benzoic Acid Methyl Ester], the “h15LO, value given as bare %” value was 89.03%.
